Results reported in patent US10899747B2, “Biaryl piperidine amide compounds and methods of use thereof” (Athenex, Inc., priority 2017, dated 2021).

Tested on: IL-2
Experiment: PHA-IL2 (cell activation and cytokine analysis)
Format: cell-based
Settings: 50% inhibition concentration class
Procedure: Cells to be tested may include, but are not limited to, a) Jurkat (a transformed human T cell leukemia), b) whole blood isolated from human or rodent sources, c) peripheral blood mononuclear cells (PBMC) freshly isolated from human or rodent whole blood, or d) purified fractions of PBMC (e.g., CD4 T cells). Cells are plated in 96-well plates at a final density of 1.0-2.0×10^6 cells/ml in 150 ul of assay medium (RPMI+0.5% fetal calf serum). Test compounds are included at a final concentration of ≤20 uM and generally pre-incubated with cells for 30 minutes prior to stimulation. An appropriate stimulus is added, including but not limited to, a) phytohemagglutinin (PHA), b) phorbol myristate acetate (PMA) and ionomycin, or c) stimulatory antibodies to the T cell receptor (TCR) complex (e.g., anti-CD3ε) and CD28. Cell cultures are stimulated for 24-48 hours in a humidified incubator (37 degrees C./5% CO2). A fraction of the culture supernatant is than harvested from each well and assayed for the presence of appropriate cytokine using standard ELISA. Cytokines to be analyzed may include IL-2, IL-4, IL-10, IL-17, IL-22, IFNγ, and/or TNFα. If required, the number of cytokine producing cells can be determined using intracellular staining and flow cytometry. […]

Row | IC50 [nM] | SMILES
1 | 10000 to 50000 | O=C(O)c1ccc(-c2ccccc2OCC(=O)N2CCC(CCc3ccc4c(c3)OCO4)CC2)cc1 [Compound 157]
2 | 1000 to 10000 | Cc1cc(F)ccc1-c1ccccc1OCC(=O)N1CCC(CCc2ccc3c(c2)OCO3)CC1 [Compound 262]
3 | 1000 to 10000 | O=C(COc1cccnc1-c1ccc(F)cc1O)N1CCC(CCc2cccc(OCCN3CCCCC3)c2)CC1 [Compound 360]
4 | 10000 to 50000 | CN(C)CCCOc1ccc(-c2ccccc2OCC(=O)N2CCC(CCc3ccc4c(c3)OCO4)CC2)cn1 [Compound 171]
5 | 1000 to 10000 | CCN(CC)C(=O)c1ccc(-c2ccccc2OCC(=O)N2CCC(CCc3ccc4c(c3)OCO4)CC2)cc1 [Compound 168]
6 | < 1000 | N#Cc1ccc(OCC(=O)N2CCC(CCc3cccc(OC4CC4)c3)CC2)c(-c2ccc(F)cc2O)c1 [Compound 407]
7 | < 1000 | CC(C)Oc1cccc(CCC2CCN(C(=O)COc3cccnc3-c3ccc(F)cc3O)CC2)c1 [Compound 408]
8 | 1000 to 10000 | O=C(COc1ccccc1-c1ccc2nonc2c1)N1CCC(CCc2ccc3c(c2)OCO3)CC1 [Compound 174]
9 | 1000 to 10000 | CC(C)NS(=O)(=O)c1ccc(OCC(=O)N2CCC(CCc3ccc4c(c3)OCO4)CC2)c(-c2ccc(F)cc2O)c1 [Compound 390]
10 | < 1000 | O=C(COc1ccccc1-c1ccc(F)cc1O)N1CCC(CCc2cccc(C(F)(F)F)c2)CC1 [Compound 310]
11 | < 1000 | N#Cc1ccc(OCC(=O)N2CCC(CCc3ccc4c(c3)OCCO4)CC2)c(-c2ccc(F)cc2O)c1 [Compound 347]
12 | 1000 to 10000 | COc1cccc(CCC2CCN(C(=O)CSc3ccccc3-c3ccccc3)CC2)c1 [Compound 287]
13 | 1000 to 10000 | COc1ccccc1CCC1CCN(C(=O)COc2ccccc2-c2ccccc2)CC1 [Compound 126]
14 | 1000 to 10000 | C#CCOc1ccc(CCC2CCN(C(=O)COc3ccccc3-c3ccc(C(=O)c4ccccc4)cc3)CC2)cc1 [Compound 412]
15 | < 1000 | O=C1NCCOc2ccc(CCC3CCN(C(=O)COc4ccccc4-c4ccccc4)CC3)cc21 [Compound 284]
16 | < 1000 | CCc1ccc(OCC(=O)N2CCC(CCc3ccc4c(c3)OCO4)CC2)c(-c2ccc3[nH]ncc3c2)c1 [Compound 277]
17 | 1000 to 10000 | C=C(C)c1cccc(-c2ccccc2OCC(=O)N2CCC(CCc3ccc4c(c3)OCO4)CC2)c1 [Compound 205]
18 | < 1000 | O=C(COc1ccccc1-c1cc(F)c(F)c(F)c1)N1CCC(CCc2ccc3c(c2)OCO3)CC1 [Compound 200]
19 | < 1000 | Cc1ccc(-c2ccccc2OCC(=O)N2CCC(CCc3ccccc3)CC2)nn1 [Compound 422]
20 | < 1000 | Cc1ccc(F)cc1CCC1CCN(C(=O)COc2ccccc2-c2ccc(F)cc2O)CC1 [Compound 306]
21 | 1000 to 10000 | COc1cccc(CCC2CCN(C(=O)COc3cccnc3-c3ccc4c(ccn4C)c3)CC2)c1 [Compound 378]
22 | < 1000 | O=C(COc1ccccc1-c1ccccc1Oc1ccccc1)N1CCC(CCc2ccc3c(c2)OCO3)CC1 [Compound 216]
23 | 10000 to 50000 | O=C(CCc1ccccc1-c1ccccc1)N1CCC(CCc2ccc3c(c2)OCO3)CC1 [Compound 219]
24 | < 1000 | O=C(COc1ccccc1-c1ccccc1)N1CCC(CCc2ccc(F)c(F)c2)CC1 [Compound 120]

Row | IC50 [nM] | SMILES
25 | 1000 to 10000 | O=C(COc1cccnc1-c1ccc(F)nc1)N1CCC(CCc2ccc3c(c2)OCCCO3)CC1 [Compound 339]
26 | 1000 to 10000 | O=C(COc1ccccc1-c1ccc(F)cc1O)N1CCC(CCc2cccc(OCCN3CCCC3)c2)CC1 [Compound 359]
27 | 1000 to 10000 | O=C(CSc1ccccc1-c1ccccc1)N1CCC(CCc2ccc3c(c2)OCO3)CC1 [Compound 286]
28 | 1000 to 10000 | O=C(COc1cccnc1-c1ccc2[nH]ncc2c1)N1CCC(CCc2ccc3c(c2)OCO3)CC1 [Compound 328]
29 | < 1000 | O=C(COc1ccccc1-c1ccccc1O)N1CCC(CCc2ccc3c(c2)OCCCO3)CC1 [Compound 233]
30 | < 1000 | CCc1ccc(OCC(=O)N2CCC(CCc3ccc4c(c3)OCO4)CC2)c(-c2ccccc2)c1 [Compound 276]
31 | 10000 to 50000 | NS(=O)(=O)c1ccc(-c2ccccc2OCC(=O)N2CCC(CCc3ccc4c(c3)OCO4)CC2)cc1 [Compound 181]
32 | < 1000 | N#Cc1cc(-c2ccccc2OCC(=O)N2CCC(CCc3ccc4c(c3)OCO4)CC2)ccc1F [Compound 188]
33 | < 1000 | O=C(COc1ccccc1-c1ccc(F)cc1O)N1CCC(CCc2ccc3c(c2)OCO3)CC1 [Compound 288]
34 | < 1000 | O=C(COc1ccc(C(F)(F)F)cc1-c1ccc(F)cc1O)N1CCC(CCc2ccccc2)CC1 [Compound 351]
35 | 1000 to 10000 | COc1cccc(CCC2CCN(C(=O)CCc3ccccc3-c3ccc(F)cc3)CC2)c1 [Compound 224]
36 | < 1000 | O=C(COc1ccccc1-c1ccc(C(F)(F)F)cc1)N1CCC(CCc2ccc3c(c2)OCO3)CC1 [Compound 203]
37 | 1000 to 10000 | O=C(COc1cccnc1-c1ccc(F)cc1O)N1CCC(CCc2ccccc2)CC1 [Compound 330]
38 | < 1000 | CCCOc1ccc(CCC2CCN(C(=O)COc3ccccc3-c3ccc(C#N)cc3)CC2)cc1OCCC [Compound 300]
39 | < 1000 | N#Cc1ccc(-c2ccccc2OCC(=O)N2CCC(CCc3ccccc3)CC2)cc1 [Compound 269]
40 | 1000 to 10000 | CC1CC(CCc2ccccc2)CCN1C(=O)COc1ccccc1-c1ccc(F)cc1O (centres unmarked) [Compound 303]
41 | 1000 to 10000 | Cc1ccc(C#CC2CCN(C(=O)COc3ccc(C#N)cc3-c3ccc(C#N)cc3)CC2)nn1 [Compound 428]
42 | < 1000 | O=C(COc1ccccc1-c1ccc(F)cc1O)N1CCC(CCc2ccc3c(c2)OCCO3)CC1 [Compound 296]
43 | < 1000 | N#Cc1ccc(-c2cc(C#N)ccc2OCC(=O)N2CCC(CCc3cccc(OC(F)F)c3)CC2)cc1 [Compound 436]
44 | 1000 to 10000 | CCOC(=O)c1cccc(-c2ccccc2OCC(=O)N2CCC(CCc3ccc4c(c3)OCO4)CC2)c1 [Compound 159]
45 | 1000 to 10000 | O=C(COc1ccccc1-c1ccc(F)cc1)N1CCC(CCc2ccccc2)CC1 [Compound 270]
46 | 10000 to 50000 | Cn1ncc2cc(-c3ncccc3OCC(=O)N3CCC(CCc4cccc(OCCN5CCOCC5)c4)CC3)ccc21 [Compound 374]
47 | 10000 to 50000 | O=C(O)c1cccc(-c2ccccc2OCC(=O)N2CCC(CCc3ccc4c(c3)OCO4)CC2)c1 [Compound 158]
48 | < 1000 | O=C(COc1ccccc1-c1ccc2[nH]ncc2c1)N1CCC(CCc2ccc3c(c2)OCO3)CC1 [Compound 249]

Row | IC50 [nM] | SMILES
49 | 10000 to 50000 | N#Cc1ccc(-c2cnccc2OCC(=O)N2CCC(CCc3ccc4c(c3)OCO4)CC2)cc1 [Compound 327]
50 | < 1000 | CCOc1ccccc1-c1ccccc1OCC(=O)N1CCC(CCc2ccc3c(c2)OCO3)CC1 [Compound 207]
51 | 1000 to 10000 | Nc1ccc(CCC2CCN(C(=O)COc3ccccc3-c3ccccc3)CC2)cn1 [Compound 255]
52 | 1000 to 10000 | O=C1COc2ccc(CCC3CCN(C(=O)COc4ccccc4-c4ccccc4)CC3)cc2N1 [Compound 254]
53 | 1000 to 10000 | N#Cc1ccc(OCC(=O)N2CCC(CCc3ccccc3)CC2)c(-c2ccc3[nH]cnc3c2)c1 [Compound 372]
54 | 1000 to 10000 | COc1cccc(-c2ccccc2OCC(=O)N2CCC(CCc3ccc4c(c3)OCO4)CC2)c1 [Compound 163]
55 | 1000 to 10000 | N#Cc1ccc(-c2ncccc2OCC(=O)N2CCC(CCc3ccc4c(c3)OCCO4)CC2)cn1 [Compound 335]
56 | < 1000 | CCOc1ccc(CCC2CCN(C(=O)COc3ccccc3-c3ccc(F)cc3O)CC2)cc1 [Compound 309]
57 | 1000 to 10000 | O=C(COc1ccccc1-c1ccc(F)cc1O)N1CCC(CCc2ccncc2)CC1 [Compound 392]
58 | 1000 to 10000 | Cc1cccc(-c2ccccc2OCC(=O)N2CCC(CCc3ccc4c(c3)OCO4)CC2)c1 [Compound 167]
59 | 1000 to 10000 | Cc1cnc(-c2ccccc2OCC(=O)N2CCC(CCc3ccccc3)CC2)cn1 [Compound 424]
60 | < 1000 | N#Cc1ccc(-c2cc(C#N)ccc2OCC(=O)N2CCC(CCc3ccc4c(c3)OCO4)CC2)cc1 [Compound 420]
61 | < 1000 | N#Cc1ccc(OCC(=O)N2CCC(CCc3cccc4ccccc34)CC2)c(-c2ccc(F)cc2O)c1 [Compound 401]
62 | 1000 to 10000 | COc1cccc(CCC2CCN(C(=O)COc3cccnc3-c3ccc(C#N)cc3)CC2)c1 [Compound 361]
63 | 1000 to 10000 | O=C(COc1ccccc1-c1ccccc1CN1CCOCC1)N1CCC(CCc2ccc3c(c2)OCO3)CC1 [Compound 228]
64 | 10000 to 50000 | COc1ccc(CCC2(O)CCN(C(=O)COc3ccccc3-c3ccccc3)CC2)cc1 [Compound 175]
65 | < 1000 | COc1ccc(-c2ccccc2OCC(=O)N2CCC(CCc3ccc4c(c3)OCO4)CC2)cn1 [Compound 199]
66 | < 1000 | C#Cc1ccc(-c2ccccc2OCC(=O)N2CCC(CCc3ccc4c(c3)OCO4)CC2)cc1 [Compound 250]
67 | < 1000 | N#Cc1ccc(-c2ccccc2C2CC2C(=O)N2CCC(CCc3ccccc3)CC2)cc1 (centres unmarked) [Compound 404]
68 | < 1000 | Cc1nc2cc(-c3ccccc3OCC(=O)N3CCC(CCc4ccc5c(c4)OCO5)CC3)ccc2[nH]1 [Compound 388]
69 | 1000 to 10000 | O=C(COc1ccccc1-c1ccc2[nH]cnc2c1)N1CCC(CCc2ccccc2)CC1 [Compound 370]
70 | 1000 to 10000 | O=C(COc1cccnc1-c1ccc(F)nc1)N1CCC(CCc2ccc3c(c2)OCCO3)CC1 [Compound 341]
71 | 1000 to 10000 | O=C(COc1ccccc1-c1ccc(F)cc1)N1CCC(CCc2ccc3c(c2)OCO3)CC1 [Compound 164]
